US20120230991A1, “METHODS AND COMPOUNDS FOR ENHANCING ANTI-CANCER THERAPY” (priority 2008, published 2012)
pIC50: −log10 of the molar value.

Key:
[1] = system: A549 Human NSCLC Cell Lines; assay: Relative cell numbers of A549 cells (wild type, shControl, Axl/Mer knockdown) after 48 hours of drug; type: cell-based; conditions: for pIC50: 48 hours, relative cell number
[2] = system: A549 Human NSCLC Cell Lines; assay: BrdU incorporation ELISA, relative cell proliferation of A549 cells, 48 hours; type: cell-based; conditions: for pIC50: BrdU assay
Method: The relative cell proliferation was determined via a BrdU incorporation ELISA. IC50 values were determined by non-linear regression of data from at least three independent experiments performed in triplicate (see Table 3).

G12 astrocytoma cells = assay: MTT assay, chemosensitivity of G12 astrocytoma control and knockdown cells; type: cell-based; conditions: MTT
Method: (§1) G12 control (shControl) and knockdown cells (shMer1 and shMer4; shAxl8 and shAxl9) were plated in 96-well plates at concentrations determined to allow linear growth over 3 days: A) cells were treated with varying concentrations of temozolomide and relative cell number was assessed 48 h after treatment by colorimetric assessment/MTT assay. Error bars denote experiments performed in triplicate. A172 control (shControl) and knockdown cells (shMer1A and shMer1B; shAxl8 and shAxl9) were plated in 96-well plates at concentrations determined to allow linear growth over 3 days: B) cells were treated with varying concentrations of carboplatin and relative cell number was assessed 48 h after treatment by colorimetric assessment/MTT assay. Error bars represent three independent experiments performed in triplicate.
(§2) Table 4 provides the IC50 with 95% CI for G12 and A172 control and Mer and Axl knockdown cells, in response to chemotherapy. In Table 4, ‘NR’ indicates an IC50 was never reached. ‘IND’ represents that that CI was indeterminate. The IC50 for each knockdown line was compared to the control line, and an ‘*’ represents that the comparison is statistically different while an ‘NS’ represents that there was no statistically significant difference because either the CI was indeterminate (as with the G12 shAxl9 line treated with carboplatin) or it overlapped with the shControl CI.

A172 glioblastoma cells = assay: MTT assay, chemosensitivity of A172 control and knockdown cells; type: cell-based; conditions: MTT
Method: as §1, §2

[3] = system: 697 Human B-ALL Cell Lines; assay: MTT assay, chemosensitivity of 697 cells (wild type, shControl, Mer knockdown), 48 hours; type: cell-based
Method: Inhibition of Mer expression results in increased chemosensitivity in 697 cells. […] IC50 values were determined by non-linear regression of data from at least three independent experiments performed in triplicate, as shown in Table 1.

REH cells [4] = assay: MTT assay, REH cells (wild type, shControl, Mer knockdown) treated with methotrexate for 48 hours; type: cell-based; conditions: REH shMer4A, shMer4B vs shControl
Text: Inhibition of Mer expression results in increased chemosensitivity of REH cells. […] Statistical differences versus shControl are indicated by non-overlapping confidence intervals (95% CI). No significant difference between wild type and shControl was observed.

REH cells [5] = assay: Flow cytometry of apoptotic and dead cells (YO-PRO-1 / propidium iodide), REH cells; type: cell-based; conditions: REH shMer4A, shMer4B vs shControl, 48 hours
Text: Apoptotic and dead cells were identified by flow cytometric analysis of cells stained with YO-PRO®-1 and propidium iodide: A) representative flow cytometry profiles. The percentage of apoptotic cells is indicated in the lower-right quadrant. The combined percentage of cells in the two upper quadrants indicates the fraction of dead cells.
Apoptotic and dead cells were identified by flow cytometric analysis of cells stained with YO-PRO®-1 and propidium iodide: A) representative flow cytometry profiles. The percentage of apoptotic cells is indicated in the lower-right quadrant. The combined percentage of cells in the two upper quadrants indicates the fraction of dead cells. B) mean values and standard errors derived from 3 independent experiments. Results were tested for significance using two-way repeated measures ANOVA and Bonferroni posttests to compare shControl and Mer knockdown cells at equivalent drug concentrations. Significant differences in apoptotic cell populations are indicated by asterisks (* p<0.01, ** p<0.001). Significant differences in the number of dead cells were also observed († p<0.01, ‡‡ p<0.001). No significant differences between wild type and shControl cells were observed.

697 cells = assay: Flow cytometry of apoptotic and dead cells (YO-PRO-1 / propidium iodide), 697 cells; type: cell-based, human; conditions: 697 shMer1A vs shControl, 48 hours
Method: Apoptotic and dead cells were identified by flow cytometric analysis of cells stained with YO-PRO®-1 and propidium iodide: A) representative flow cytometry profiles; B) mean values and standard errors derived from 3 independent experiments.
Cultures of shControl or shMer1A 697 cells were exposed to 6-MP, VP-16, or medium only for 48 hours: A) Apoptotic and dead cells were identified by flow cytometric analysis of cells stained with YO-PRO®-1 and propidium iodide: Representative flow cytometry profiles; B) the percentages of apoptotic and dead cells are indicated in lower-right and upper-right quadrants, respectively. Mean values and standard errors derived from 3 independent experiments. Results were tested for significance using two-way ANOVA and Bonferroni posttests to compare shControl and shMer1A cells at equivalent drug concentrations.

[6] = 697 shMer1A (Mer knockdown) cells
[7] = 697 shMer1B (Mer knockdown) cells

| SMILES | pIC50 ([1]; A549 Wild Type) | pIC50 ([1]; A549 shAxl8-G5 (Axl knockdown)) | pIC50 ([1]; A549 shControl) | pIC50 ([1]; A549 shMer1-G8 (Mer knockdown)) | pIC50 ([2]; A549 Wild Type, 48 hours) | pIC50 ([2]; A549 shAxl8-G5, 48 hours) | pIC50 ([2]; A549 shAxl9-D3, 48 hours) | pIC50 ([2]; A549 shControl, 48 hours) | pIC50 ([2]; A549 shMer1-G8, 48 hours) | pIC50 ([3]; 697 Wild Type cells) | pIC50 ([3]; 697 shControl cells) | pIC50 [3, 6] | pIC50 [3, 7] | other results |
| --- | --- | --- | --- | --- | --- | --- | --- | --- | --- | --- | --- | --- | --- | --- |
| N.N.O=C([O-])C1(C(=O)[O-])CCC1.[Pt+2] [Carbo, carboplatin] | < 3.80 | 5.04 | < 3.80 | 4.03 | 4.70 | 4.77 | 4.82 | 4.81 | 5.14 | – | – | – | – | sensitivity of A549 cells with inhibition of Mer expression ([2]; A549 Mer1-G8 knockdown, BrdU, 48 hours): increased sensitivity; pIC50 (G12 astrocytoma cells; G12 shAxl8, 48 h): 6.55; pIC50 (G12 astrocytoma cells; G12 shAxl9, 48 h): 6.70; pIC50 (G12 astrocytoma cells; G12 shControl, 48 h): 4.32; pIC50 (G12 astrocytoma cells; G12 shMer1, 48 h): 6.11; pIC50 (G12 astrocytoma cells; G12 shMer4, 48 h): 6.72; pIC50 (A172 glioblastoma cells; A172 shAxl8, 48 h): 7.46; pIC50 (A172 glioblastoma cells; A172 shAxl9, 48 h): 7.12; pIC50 (A172 glioblastoma cells; A172 shMer1A, 48 h): 6.09; pIC50 (A172 glioblastoma cells; A172 shMer1B, 48 h): 6.68 |
| CN(Cc1cnc2nc(N)nc(N)c2n1)c1ccc(C(=O)N[C@@H](CCC(=O)O)C(=O)O)cc1 [MTX, methotrexate] | – | – | – | – | – | – | – | – | – | 7.56 | 7.56 | 7.91 | 7.93 | IC50 values in Mer knockdown cells in comparison to shControl cells (REH cells [4]): significantly lower IC50 values; apoptotic cell death with Mer knockdown (REH cells [5]): increased apoptotic cell death |
| N.N.[Cl][Pt][Cl] [Cispl, cisplatin] | 5.19 | 6.29 | 5.07 | 5.52 | 5.68 | 5.57 | 5.64 | 5.77 | 6.00 | – | – | – | – | pIC50 ([1]; A549 shAxl9-D3 (Axl knockdown)): 5.47; sensitivity of the shAxl9-D3 Axl knockdown clone ([1]; A549 shAxl9-D3, 48 hours): more sensitive |
| Sc1ncnc2nc[nH]c12 [6-MP, 6-mercaptopurine] | – | – | – | – | – | – | – | – | – | < 4.19 | < 4.19 | 5.54 | 5.49 | induction of apoptotic cell death with Mer knockdown (697 cells): increased induction of apoptotic cell death |
